Test results taken from patent publication US20090012088A1 (priority 2005, published 2009).

Columns and labels:
PARG = test: Table 2: small molecules tested for PARG inhibition activity (relative to PIP-1); type: biochemical
U-937 cells = test: Protection against H2O2 treatment of U-937 cells (cell survival); type: cell-based; conditions: FIG. 13
Experimental: We have made multiple derivatives of PIP-1; these compounds are shown below in Table 2 and in FIG. 11 and labeled Structures 1-39. The neuroprotective effects of structures 1-26 were tested in the cellular assay and compared to the neuroprotective effect of PIP-1 (FIG. 13).
PIP-1 and structures 1-26 were screened for protection against H2O2 treatment of U-937 cells FIG. 13.

| Molecule | Activity (PARG) | Protection of U-937 cells treated with H2O2 (activity compared to PIP-1) (U-937 cells) |
| --- | --- | --- |
| CN(C)c1cnn(C)c(=O)c1N [Structure 39] | low | – |
| CC(=O)Nc1c(N2CCCCC2)cnn(-c2ccccc2)c1=O [Structure 20] | good | activity similar or better than PIP-1 |
| Nc1c(Cl)cnn(-c2ccccc2)c1=O [Structure 8] | low | – |
| CC(=O)N(C(C)=O)c1c(Cl)cnn(-c2ccccc2)c1=O [Structure 10] | low | – |
| CCCCCCNc1c(Cl)cnn(-c2ccccc2)c1=O [Structure 7] | low | – |
| CC(=O)Nc1c(Cl)cnn(-c2ccccc2)c1=O [Structure 9] | low | – |
| CCCN(CCC)c1cnn(-c2ccccc2)c(=O)c1NC(C)=O [Structure 26] | low | low or no activity |
| CCN(CC)c1cnn(-c2ccccc2)c(=O)c1NC(C)=O [Structure 25] | moderate | moderate activity |
| CCCCN(CC)c1cnn(-c2ccccc2)c(=O)c1N [Structure 15] | moderate | moderate activity |
| CCCCN(CC)c1cnn(-c2ccccc2)c(=O)c1NC(C)=O [Structure 16] | low | low or no activity |
| 4-Amino-5-dimethylamino-2-phenyl-2H-pyridazin-3-one [PIP-1] | moderate | low or no activity |
| CCCCN(CCCC)c1cnn(-c2ccccc2)c(=O)c1N [Structure 13] | good | activity similar or better than PIP-1 |
| CCCN(CCC)c1cnn(-c2ccccc2)c(=O)c1N [Structure 12] | good | activity similar or better than PIP-1 |
| CCN(CC)c1cnn(-c2ccccc2)c(=O)c1N [Structure 11] | good | activity similar or better than PIP-1 |
| Nc1c(N2CCCCC2)cnn(-c2ccccc2)c1=O [Structure 19] | good | activity similar or better than PIP-1 |
| CC(=O)Nc1c(N2CCCC2)cnn(-c2ccccc2)c1=O [Structure 18] | moderate | moderate activity |
| O=c1c(Cl)c(O)cnn1-c1ccccc1 [entry 3, reference compound] | low | low or no activity |
| CCCCN(CCCC)c1cnn(-c2ccccc2)c(=O)c1NC(C)=O [Structure 14] | low | low or no activity |
| CC(=O)Nc1c(N(C)C)cnn(-c2ccccc2)c1=O [Structure 24] | moderate | moderate activity |
| CC(=O)Nc1c(N2CCOCC2)cnn(-c2ccccc2)c1=O [Structure 22] | moderate | moderate activity |
| Nc1c(N2CCCC2)cnn(-c2ccccc2)c1=O [Structure 17] | moderate | moderate activity |
| Nc1c(N2CCOCC2)cnn(-c2ccccc2)c1=O [Structure 21] | good | activity similar or better than PIP-1 |
